Data reported in patent publication US20170173106A1, “Polypeptide Fragments of 168A-T2 and Compositions Comprising Them for Use in Treating Cancer” (GENE SIGNAL INTERNATIONAL SA, priority 2014, published 2017).

Tests used:
[1] = test system: HUVECs; assay: Capillaries formation by HUVECs on Matrigel; assay type: cell-based, human; details: 6.5 μM, 13 μM and 33 μM, 18 h
Method: Evaluating the formation of capillaries on Matrigel® was performed by angiogenesis test in vitro described in Grant et al (1989 Cell 58, 933-943). Matrigel® was dropped down the wells of the 96 well plates and maintained for 30 min at 37° C. for the Matrigel® solidification. HUVECs cells were then seeded and 50 μL, of peptide added.
Plates were then incubated for 18 hrs at 37° C. cells were then washed with calcein solution (50 μL/well at 8 μM) and incubated for 20 min. HUVECs alive metabolize calcein in a green fluorescent component.
Peptides were added to the culture medium (EGM2-MV) at concentrations 6.5 μM, 13 μM and 33 μM after inoculation of cells. Plates were incubated at 37° C. for 18 h. Fluorescence labeling was achieved by addition of calcein. Pictures were shot with a fluorescence microscope equipped with a camera (zoom ×40).

[2] = test system: HUVECs; assay: Cellular proliferation test (MTT) on HUVECs; assay type: cell-based, human; details: 48 h
Method: Evaluation of cellular proliferation was performed using 4,5-diMethylThiazol-2-yl)-2,5 diphenylTetrazolium bromide (MTT) test. After 18 hrs of culture, the media was changed by EBM2 supplemented with gentamycine and 5% SVF. Different concentrations of peptides were added under a volume of 10 μL/well. Cells were incubated for 48 hrs at 37° C. MTT was added (50 μL/well) to the cells for 3 hrs.
Cells were grown for 48 h in EGM2-MV and proliferation was quantified by MTT assay.

[3] = target: T1, CD9P-1-CD151 complex (Homo sapiens, UniProt P48509+Q9P2B2); assay: Immunoprecipitation in HUVECs: CD9P-1 with CD151; assay type: cell-based; details: 33 μM; 2 hrs
T1 construct: endogenous in cells; host or cells: HUVEC
T1 sequence (Q9P2B2 26-879): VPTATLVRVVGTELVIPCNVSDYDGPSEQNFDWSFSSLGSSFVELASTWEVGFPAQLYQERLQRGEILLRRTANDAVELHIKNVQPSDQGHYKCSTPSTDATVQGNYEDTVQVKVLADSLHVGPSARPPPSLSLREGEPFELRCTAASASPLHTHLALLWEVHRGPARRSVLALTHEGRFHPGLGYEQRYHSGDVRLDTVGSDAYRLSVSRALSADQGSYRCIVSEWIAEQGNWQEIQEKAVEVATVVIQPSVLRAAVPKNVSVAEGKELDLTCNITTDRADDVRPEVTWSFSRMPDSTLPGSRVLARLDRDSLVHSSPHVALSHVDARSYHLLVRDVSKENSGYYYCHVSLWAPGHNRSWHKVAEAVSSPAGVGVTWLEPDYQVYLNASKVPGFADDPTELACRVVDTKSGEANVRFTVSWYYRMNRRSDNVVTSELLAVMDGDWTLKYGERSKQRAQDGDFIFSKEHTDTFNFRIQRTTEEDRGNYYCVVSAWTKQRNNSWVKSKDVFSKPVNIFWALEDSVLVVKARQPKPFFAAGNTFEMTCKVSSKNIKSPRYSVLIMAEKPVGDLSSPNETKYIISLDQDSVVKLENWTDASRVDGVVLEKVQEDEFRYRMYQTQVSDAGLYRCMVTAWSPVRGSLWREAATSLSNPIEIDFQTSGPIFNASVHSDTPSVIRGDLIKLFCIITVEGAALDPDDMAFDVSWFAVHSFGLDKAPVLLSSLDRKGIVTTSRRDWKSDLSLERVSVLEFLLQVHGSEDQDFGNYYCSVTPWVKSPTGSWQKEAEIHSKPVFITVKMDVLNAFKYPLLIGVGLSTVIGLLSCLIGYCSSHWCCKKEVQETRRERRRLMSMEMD
T1 sequence (P48509 1-253): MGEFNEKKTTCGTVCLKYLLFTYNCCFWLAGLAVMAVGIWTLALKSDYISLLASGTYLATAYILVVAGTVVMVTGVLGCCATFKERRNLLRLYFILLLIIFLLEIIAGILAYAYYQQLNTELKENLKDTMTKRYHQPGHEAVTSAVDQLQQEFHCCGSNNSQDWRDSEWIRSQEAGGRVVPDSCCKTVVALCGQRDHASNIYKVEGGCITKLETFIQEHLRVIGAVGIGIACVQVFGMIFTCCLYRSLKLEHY
Method: FIG. 13 is a photograph representing the dissociation of CD9-CD9P-1, CD9P-1-CD151 and CD9-CD151 complexes by P3 in HUVECs. HUVECs incubated for 2 h with 33 μM P3, PCT or solvent in EGM2-MV medium were lysed in brij 97 buffer, then CD81, CD9 or CD151 were immunoprecipitated with the corresponding antibody. Line A: Western blot results obtained with anti-CD9P-1 antibody from immunoprecipitated CD81, CD9 and CD151. Line B: Western blot results obtained with anti-CD9 antibody from immunoprecipitated CD81, CD9 and CD151. Line C: Western blot results obtained with anti-CD151 antibody from immunoprecipitated CD81, CD9 and CD151. PCT: control peptide. IP: immunoprecipitation.
To study more precisely the effect of P3 on the associations of tetraspanins CD9, CD81, and CD151 between them and with CD9P-1, immunoprecipitation (IP) experiments were performed. In the control experiment (with the solvent), CD9P-1 co-precipitated with CD9 and CD81. A weak co-precipitation was observed between […] and CD151. The associations between tetraspanins and CD9P-1 are not modified under PCT condition. However, the interactions between CD9P-1 and CD9 and between CD9P-1 and CD151 are decreased while the HUVECs are incubated for 2 hrs with 33 μM of P3. The association between CD9P-1 and CD81 is not modified by P3 (FIG. 13A).

Sequence: NQKGCYDLVT (control peptide) [PCT]
- capillary tubes formation (capillaries length and junctions number) [1]: no effect
- effect on HUVECs proliferation [2]: No effect
- interaction between CD9P-1 and CD151 [3]: not modified
